Reference: patent publication US8119667B2, “Carbonates of fenicol antibiotics” (Schering-Plough Animal Health Corporation, priority 2005, dated 2012)
In brackets after ≈: the same amount, converted by molar mass.

Experiments:
[1] = Syringeability of dosing solutions (dripping-syringe method); assay type: physicochemical
Protocol: Table 4, below, provides evaluations of the syringeability of dosing solutions of selected florfenicol benzylic carbonate prodrugs at concentrations equivalent to 300 mg/ml florfenicol (30% weight/volume).
High concentrations of fenicol or fenicol drug contained in a fenicol prodrug are often necessary for convenient administration of the necessary amount of the desired amount of the antibiotic. Due to the limited solubility of fenicols in many organic solvents or mixtures of solvents acceptable for injectable formulations the choice of solvents for preparation of highly concentrated florfenicol solutions is limited. As a result highly concentrated solutions of fenicol drugs in organic solvents or solvent mixtures may become highly viscous and difficult to administer by a syringe. Therefore the ability of fenicol benzylic carbonate prodrugs to dissolve in a wider range of organic solvents or mixtures of solvents acceptable for injectable formulations offered the potential to prepare highly concentrated solutions for injections with lower viscosity. […] Test solutions of florfenicol benzylic carbonates containing concentrations of florfenicol (mg/mL) equivalent to the concentration present in Nuflor® formulation were prepared. Syringeabilities of the solutions were evaluated by means of the “dripping syringe” method in which the dripping times (sec) of equal volumes of such solutions under free gravitational flow conditions from a vertically positioned syringe were measured at 15° C. After removing the plunger from a 5 ml polyethylene disposable syringe (5 ml Luer, Norm-Ject Zentrish/Henke Saas Wolf GMBH) and fitting the syringe with a disposable needle (B-D® 16G1 Precision Glide/BentonDickinson & CO) the test solutions were loaded from the top into the syringe and the time necessary for the free flow of 2 mL of solution (between 3 ml and 1 ml marks) was recorded in triplicate. The syringeabilities relative to Nuflor® were calculated by dividing the dripping time for the test solutions (entries 1-12) by the dripping time measured for the commercial sample of Nuflor® formulation (entry 13) As it is evident from the results in Table 4 the syringeabilities of tested solutions containing benzyl alcohol as viscosity diluent had relative syringeabilities <1.00 and were therefore better than Nuflor® (30% weight/volume florfenicol solution in propylene glycol/polyethylene glycol 300/2-methyl pyrolidinone). Due to their better syringeability these solutions represent more favorable formulations for injectable delivery of florfenicol. Solution of the florfenicol benzylic carbonate of the example 2 in triacetin/2-pyrolidinone—1/1 lacking the benzyl alcohol viscosity diluent was the only solution with syringeability poorer that than that of Nuflor® (entry 5).

[2] = Aqueous solubility; assay type: physicochemical; conditions: aqueous medium (not further specified)
Protocol: In some therapeutic applications florfenicol is administered in concentrated organic solution subcutaneously where it is known to form localized depot of the drug which results in the desired sustained release of the drug into the circulation. In such cases solubility of florfenicol in aqueous media represents one of important factors determining the rate of the sustained release. Another important factor affecting the sustained release of florfenicol from the subcutaneous depot site is the concentration of the dosing solution and the solvent composition of the formulation. Apart from the broader range of solvents which can be used for acceptable formulations of florfenicol benzylic carbonate prodrugs these prodrugs also allow a wide range of aqueous solubilities. Solubilities achieved with these prodrugs range from slightly to dramatically lower than that of florfenicol. Reduced aqueous solubilities of such prodrugs may be useful in controlling the rate of dissolution of the prodrug at the subcutaneous depot site and may allow achieving optimized sustained release of the parent drug.

[3] = In vitro enzymatic release of parent florfenicol from prodrugs in bovine serum; assay type: in vitro ADME; conditions: for Florfenicol released from prodrugs (% of total) after treatment with bovine serum: 37° C.; for rates of florfenicol release in serum: bovine serum, among the compounds tested
Excerpt: The ability of a prodrug derivative of a parent drug molecule to act efficiently in vivo as a source of the free parent drug determines the utility of a particular prodrug for treatment. The prodrug's ability to release the parent drug in vivo, in the presence of endogenous enzymes, can be determined by measuring the systemic levels of the parent drug after administration of the prodrug to the animal. This releasibility can also be assessed in vitro by measuring the release of the parent drug after mixing with animal whole blood, plasma or serum. Selected benzylic carbonate prodrugs of florfenicol were tested for release of florfenicol after in vitro mixing with bovine serum. […] A general trend of more lipophilic carbonates of florfenicol showing higher rates of degradation and release seems to be present among the compounds tested.
50 microliter of stock solution of carbonate pro-drug (10 mg/mL in DMSO) was added to 5 mL donor bovine serum and mixed. Aliquots of 400 microliter of the resulting solution were transferred into 1.5 mL plastic centrifuge tubes. Each plastic tube was placed into at 37° C. water bath for incubation. Samples were removed at 0, 1, 2, 4, 8, and 24 hours, and after addition of 400 microliter of acetonitrile to stop the reaction, rapidly stirred for 30 seconds. The precipitate was removed by centrifugation on an Eppendorf 5415G at 14000 rpm for 5 minutes. The clear supernatant solution was sampled for the HPLC analysis. The peak area of florfenicol was used to calculate the conversion of the prodrugs.

[4] = Solubility in triacetin/benzyl alcohol 2:1 (volume/volume) solvent mixture; assay type: physicochemical; conditions: 20° C.
Protocol: Florfenicol parent drug was not soluble in triacetin/benzyl alcohol 2:1 (volume/volume) even at concentrations as low as 10% (weight/volume). […] The combination of prodrug of Example 14 at 275 mg/ml and florfenicol at 100 mg/ml was soluble in triacetin/benzyl alcohol 2:1 (volume/volume) and provided a stable solution with 30% (weight/volume) content of florfenicol (Table 4, supra, entry 12).

[5] = prodrug concentration equivalent to 300 mg/ml florfenicol, Triacetin/benzyl alcohol/2-pyrolidinone - 2:1:1.5, 15° C.
[6] = prodrug concentration equivalent to 300 mg/ml florfenicol, Triacetin/benzyl alcohol - 2:1 (vol/vol), 15° C.
[7] = prodrug concentration equivalent to 300 mg/ml florfenicol, Triacetin/benzyl alcohol - 2:1 (vol/vol), free flow of 2 mL at 15° C.
[8] = 300 mg/ml, N-methyl 2-pyrolidinone/propylene glycol/polyethylene glycol 300, 15° C.

SMILES | solubility [2] | Florfenicol released from prodrugs (% of total) after treatment with bovine serum ([3]; 0 h) | melting point | Solubility at selected concentration of contained florfenicol ([4]; 10% weight/volume florfenicol) | Solubility at selected concentration of contained florfenicol ([4]; 20% weight/volume florfenicol) | Solubility at selected concentration of contained florfenicol ([4]; 25% weight/volume florfenicol) | Solubility at selected concentration of contained florfenicol ([4]; 30% weight/volume florfenicol) | Solubility at selected concentration of contained florfenicol ([4]; 35% weight/volume florfenicol) | Solubility at selected concentration of contained florfenicol ([4]; 37% weight/volume florfenicol) | Solubility at selected concentration of contained florfenicol ([4]; 40% weight/volume florfenicol) | further results
CC(C)OC(=O)O[C@H](c1ccc(S(C)(=O)=O)cc1)[C@@H](CF)NC(=O)C(Cl)Cl [Example 4, (1R,2S)-2-(2,2-dichloroacetamido)-3-fluoro-1-(4-(methylsulfonyl)phenyl)propyl isopropyl carbonate] | 100 µg/mL (≈ 225 µM) | BQL | 148 to 150 °C | – | – | – | – | – | – | – | Syringeability measurement: Dripping time [1, 5]: 164 ± 3 s; Syringeability measurement: Relative to NUFLOR [1, 5]: 0.70; Florfenicol released from prodrugs (% of total) after treatment with bovine serum ([3]; 1 h): BQL; Florfenicol released from prodrugs (% of total) after treatment with bovine serum ([3]; 2 h): BQL
CC(C)COC(=O)O[C@H](c1ccc(S(C)(=O)=O)cc1)[C@@H](CF)NC(=O)C(Cl)Cl [Example 5, (1R,2S)-2-(2,2-dichloroacetamido)-3-fluoro-1-(4-(methylsulfonyl)phenyl)propyl isobutyl carbonate] | 7 µg/mL (≈ 15.3 µM) | – | 156 to 158 °C | – | – | – | – | – | – | – | –
CS(=O)(=O)c1ccc([C@@H](OC(=O)OCC2CC2)[C@@H](CF)NC(=O)C(Cl)Cl)cc1 [Example 6, Cyclopropylmethyl(1R,2S)-2-(2,2-dichloroacetamido)-3-fluoro-1-(4-(methylsulfonyl)phenyl)propyl carbonate] | 120 µg/mL (≈ 263 µM) | – | 132 to 134 °C | – | – | – | – | – | – | – | –
CC(C)CCOC(=O)O[C@H](c1ccc(S(C)(=O)=O)cc1)[C@@H](CF)NC(=O)C(Cl)Cl [Example 8, (1R,2S)-2-(2,2-dichloroacetamido)-3-fluoro-1-(4-(methylsulfonyl)phenyl)propyl isopentyl carbonate] | 25 µg/mL (≈ 52.9 µM) | BQL | 120 to 122 °C | – | – | – | – | – | – | – | Syringeability measurement: Dripping time [1, 5]: 157 ± 1 s; Syringeability measurement: Relative to NUFLOR [1, 5]: 0.67; rates of florfenicol release in serum [3]: highest rates
COCCOC(=O)O[C@H](c1ccc(S(C)(=O)=O)cc1)[C@@H](CF)NC(=O)C(Cl)Cl [Example 11, (1R,2S)-2-(2,2-dichloroacetamido)-3-fluoro-1-(4-(methylsulfonyl)phenyl)propyl 2-methoxyethyl carbonate] | 770 µg/mL (≈ 1670 µM) | – | – | – | – | – | – | – | – | – | –
CCOCCOC(=O)O[C@H](c1ccc(S(C)(=O)=O)cc1)[C@@H](CF)NC(=O)C(Cl)Cl [Example 12, (1R,2S)-2-(2,2-dichloroacetamido)-3-fluoro-1-(4-(methylsulfonyl)phenyl)propyl 2-ethoxyethyl carbonate] | 350 µg/mL (≈ 738 µM) | – | 88 to 90 °C | – | – | – | – | – | – | – | –
CCCCOCCOC(=O)O[C@H](c1ccc(S(C)(=O)=O)cc1)[C@@H](CF)NC(=O)C(Cl)Cl [Example 13, (1R,2S)-2-(2,2-dichloroacetamido)-3-fluoro-1-(4-(methylsulfonyl)phenyl)propyl 2-butoxyethyl carbonate] | 150 µg/mL (≈ 299 µM) | BQL | – | soluble | soluble | soluble | soluble | soluble | soluble | soluble | Syringeability measurement: Relative to NUFLOR [1, 6]: 0.61; Syringeability measurement: Dripping time [1, 7]: 141 ± 5 s; Florfenicol released from prodrugs (% of total) after treatment with bovine serum ([3]; 1 h): BQL
CS(=O)(=O)c1ccc([C@@H](OC(=O)OCc2ccccc2)[C@@H](CF)NC(=O)C(Cl)Cl)cc1 [Example 14, Benzyl(1R,2S)-2-(2,2-dichloroacetamido)-3-fluoro-1-(4-(methylsulfonyl)phenyl)propyl carbonate] | 32 µg/mL (≈ 65 µM) | BQL | 105 to 106 °C | soluble | soluble | soluble | soluble | soluble | soluble | insoluble | Syringeability measurement: Relative to NUFLOR [1, 6]: 0.88; Syringeability measurement: Dripping time [1, 7]: 204 ± 9 s; rates of florfenicol release in serum [3]: highest rates
CCOC(=O)[C@H](C)OC(=O)O[C@H](c1ccc(S(C)(=O)=O)cc1)[C@@H](CF)NC(=O)C(Cl)Cl [Example 17] | 550 µg/mL (≈ 1090 µM) | – | 44 to 54 °C | – | – | – | – | – | – | – | –
CS(=O)(=O)c1ccc([C@@H](O)[C@@H](CF)NC(=O)C(Cl)Cl)cc1 [Florfenicol, D-(threo)-1-(4-methylsulfonylphenyl)-2-dichloroacetamido-3-fluoro-1-propanol, reference compound] | 1530 µg/mL (≈ 4270 µM) | – | – | not soluble | insoluble | insoluble | insoluble | insoluble | insoluble | insoluble | Syringeability measurement: Dripping time [1, 8]: 233 ± 2 s; Syringeability measurement: Relative to NUFLOR [1, 8]: 1.00; Solubility at selected concentration of contained florfenicol ([4]; 10% weight/volume florfenicol, listed as florfenicol): insoluble
